Measurements from patent US10787452B2 (Vertex Pharmaceuticals Incorporated, priority 2012, dated 2020).

Tested on: HCT116 colorectal cancer cells
Test: Cisplatin sensitization assay (96 h cell viability MTS);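 also: compound concentration needed to lower the Cisplatin-alone IC50 by a set fold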
Assay type: cell-based
Conditions: 96 h MTS, compound plus Cisplatin
Procedure, shortened: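 Simultaneous addition of compound and cisplatin (2-fold series, top 10 μM final, full matrix), followed by 96 h culture at 37° C/5% CO2 and a 1 h MTS viability read.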

CCn1cncc1-c1ccncc1NC(=O)c1c(N)nn2cc(F)cnc12 [I-C-80, 2-amino-N-(4-(1-ethyl-1H-imidazol-5-yl)pyridin-3-yl)-6-fluoropyrazolo[1,5-a]pyrimidine-3-carboxamide]
Cisplatin Sensitization Assay: +++ (Compounds with a Cisplatin sensitization value of <0.02 μM are marked with “+++.”)

COc1cncc(NC(=O)c2c(N)nn3cc(F)cnc23)c1-c1cncn1C [I-C-81, 2-amino-6-fluoro-N-(5-methoxy-4-(1-methyl-1H-imidazol-5-yl)pyridin-3-yl)pyrazolo[1,5-a]pyrimidine-3-carboxamide]
Cisplatin Sensitization Assay: +++ (Compounds with a Cisplatin sensitization value of <0.02 μM are marked with “+++.”)

COc1cncc(NC(=O)c2c(N)nn3cc(F)cnc23)c1-c1cccnc1 [I-C-82, 2-amino-6-fluoro-N-(5′-methoxy-[3,4′-bipyridin]-3′-yl)pyrazolo[1,5-a]pyrimidine-3-carboxamide]
Cisplatin Sensitization Assay: +++ (Compounds with a Cisplatin sensitization value of <0.02 μM are marked with “+++.”)

COCCn1cncc1-c1ccncc1NC(=O)c1c(N)nn2cc(F)cnc12 [I-C-83, 2-amino-6-fluoro-N-(4-(1-(2-methoxyethyl)-1H-imidazol-5-yl)pyridin-3-yl)pyrazolo[1,5-a]pyrimidine-3-carboxamide]
Cisplatin Sensitization Assay: ++ (Compounds with a Cisplatin sensitization value >0.02 μM but <0.2 μM are marked with “++.”)

COc1cncc(NC(=O)c2c(N)nn3cc(F)cnc23)c1C1CC1 [I-C-84, 2-amino-N-(4-cyclopropyl-5-methoxypyridin-3-yl)-6-fluoropyrazolo[1,5-a]pyrimidine-3-carboxamide]
Cisplatin Sensitization Assay: ++ (Compounds with a Cisplatin sensitization value >0.02 μM but <0.2 μM are marked with “++.”)

CN1CCN(C(=O)C2CCN(c3ccncc3NC(=O)c3c(N)nn4cc(F)cnc34)CC2)CC1 [I-G-1, 2-amino-6-fluoro-N-(4-(4-(4-methylpiperazine-1-carbonyl)piperidin-1-yl)pyridin-3-yl)pyrazolo[1,5-a]pyrimidine-3-carboxamide]
Cisplatin Sensitization Assay: +++ (Compounds with a Cisplatin sensitization value of <0.02 μM are marked with “+++.”)

CN(C)C(=O)C1CCN(c2ccncc2NC(=O)c2c(N)nn3cc(F)cnc23)CC1 [I-G-2, 2-amino-N-(4-(4-(dimethylcarbamoyl)piperidin-1-yl)pyridin-3-yl)-6-fluoropyrazolo[1,5-a]pyrimidine-3-carboxamide]
Cisplatin Sensitization Assay: +++ (Compounds with a Cisplatin sensitization value of <0.02 μM are marked with “+++.”)

CN1CCN(C(=O)C2CCN(c3c(Cl)cncc3NC(=O)c3c(N)nn4cc(F)cnc34)CC2)CC1 [I-G-3, 2-amino-N-(5-chloro-4-(4-(4-methylpiperazine-1-carbonyl)piperidin-1-yl)pyridin-3-yl)-6-fluoropyrazolo[1,5-a]pyrimidine-3-carboxamide]
Cisplatin Sensitization Assay: +++ (Compounds with a Cisplatin sensitization value of <0.02 μM are marked with “+++.”)

CN1CCN(C(=O)C2CCN(c3c(F)cncc3NC(=O)c3c(N)nn4cc(F)cnc34)CC2)CC1 [I-G-4, 2-amino-6-fluoro-N-(5-fluoro-4-(4-(4-methylpiperazine-1-carbonyl)piperidin-1-yl)pyridin-3-yl)pyrazolo[1,5-a]pyrimidine-3-carboxamide]
Cisplatin Sensitization Assay: +++ (Compounds with a Cisplatin sensitization value of <0.02 μM are marked with “+++.”)

CN1CCN(C(=O)C2CCN(c3c(F)cncc3NC(=O)c3c(N)nn4cc(Cl)cnc34)CC2)CC1 [I-G-5, 2-amino-6-chloro-N-(5-fluoro-4-(4-(4-methylpiperazine-1-carbonyl)piperidin-1-yl)pyridin-3-yl)pyrazolo[1,5-a]pyrimidine-3-carboxamide]
Cisplatin Sensitization Assay: +++ (Compounds with a Cisplatin sensitization value of <0.02 μM are marked with “+++.”)

CN1CCCN(C(=O)C2CCN(c3c(F)cncc3NC(=O)c3c(N)nn4cc(F)cnc34)CC2)CC1 [I-G-6, 2-amino-6-fluoro-N-(5-fluoro-4-(4-(4-methyl-1,4-diazepane-1-carbonyl)piperidin-1-yl)pyridin-3-yl)pyrazolo[1,5-a]pyrimidine-3-carboxamide]
Cisplatin Sensitization Assay: +++ (Compounds with a Cisplatin sensitization value of <0.02 μM are marked with “+++.”)

Nc1nn2cc(F)cnc2c1C(=O)Nc1cncc(F)c1N1CCC(C(=O)N2CCN3CCC2CC3)CC1 [I-G-7, N-(4-(4-(1,4-diazabicyclo[3.2.2]nonane-4-carbonyl)piperidin-1-yl)-5-fluoropyridin-3-yl)-2-amino-6-fluoropyrazolo[1,5-a]pyrimidine-3-carboxamide]
Cisplatin Sensitization Assay: +++ (Compounds with a Cisplatin sensitization value of <0.02 μM are marked with “+++.”)

Nc1nn2cc(F)cnc2c1C(=O)Nc1cncc(F)c1N1CCC(C(=O)N2CCC2)CC1 [I-G-8, 2-amino-N-(4-(4-(azetidine-1-carbonyl)piperidin-1-yl)-5-fluoropyridin-3-yl)-6-fluoropyrazolo[1,5-a]pyrimidine-3-carboxamide]
Cisplatin Sensitization Assay: +++ (Compounds with a Cisplatin sensitization value of <0.02 μM are marked with “+++.”)

CCN1CCN(C(=O)C2CCN(c3c(F)cncc3NC(=O)c3c(N)nn4cc(F)cnc34)CC2)CC1 [I-G-9, 2-amino-N-(4-(4-(4-ethylpiperazine-1-carbonyl)piperidin-1-yl)-5-fluoropyridin-3-yl)-6-fluoropyrazolo[1,5-a]pyrimidine-3-carboxamide]
Cisplatin Sensitization Assay: +++ (Compounds with a Cisplatin sensitization value of <0.02 μM are marked with “+++.”)

Nc1nn2cc(F)cnc2c1C(=O)Nc1cncc(F)c1N1CCC(C(=O)N2CCN3CCCC3C2)CC1 (stereo not shown) [I-G-10, 2-amino-6-fluoro-N-(5-fluoro-4-(4-(octahydropyrrolo[1,2-a]pyrazine-2-carbonyl)piperidin-1-yl)pyridin-3-yl)pyrazolo[1,5-a]pyrimidine-3-carboxamide]
Cisplatin Sensitization Assay: +++ (Compounds with a Cisplatin sensitization value of <0.02 μM are marked with “+++.”)

CN(C)[C@@H]1CCN(C(=O)C2CCN(c3c(F)cncc3NC(=O)c3c(N)nn4cc(F)cnc34)CC2)C1 [I-G-11, (R)-2-amino-N-(4-(4-(3-(dimethylamino)pyrrolidine-1-carbonyl)piperidin-1-yl)-5-fluoropyridin-3-yl)-6-fluoropyrazolo[1,5-a]pyrimidine-3-carboxamide]
Cisplatin Sensitization Assay: +++ (Compounds with a Cisplatin sensitization value of <0.02 μM are marked with “+++.”)

Nc1nn2cc(F)cnc2c1C(=O)Nc1cncc(F)c1N1CCC(C(=O)N2CCNCC2)CC1 [I-G-12, 2-amino-6-fluoro-N-(5-fluoro-4-(4-(piperazine-1-carbonyl)piperidin-1-yl)pyridin-3-yl)pyrazolo[1,5-a]pyrimidine-3-carboxamide]
Cisplatin Sensitization Assay: +++ (Compounds with a Cisplatin sensitization value of <0.02 μM are marked with “+++.”)

Nc1nn2cc(F)cnc2c1C(=O)Nc1cncc(F)c1N1CCC(C(=O)N2CCN(C3CC3)CC2)CC1 [I-G-13, 2-amino-N-(4-(4-(4-cyclopropylpiperazine-1-carbonyl)piperidin-1-yl)-5-fluoropyridin-3-yl)-6-fluoropyrazolo[1,5-a]pyrimidine-3-carboxamide]
Cisplatin Sensitization Assay: +++ (Compounds with a Cisplatin sensitization value of <0.02 μM are marked with “+++.”)

Nc1nn2cc(F)cnc2c1C(=O)Nc1cncc(F)c1N1CCC(C(=O)N2CC3(COC3)C2)CC1 [I-G-14, N-(4-(4-(2-oxa-6-azaspiro[3.3]heptane-6-carbonyl)piperidin-1-yl)-5-fluoropyridin-3-yl)-2-amino-6-fluoropyrazolo[1,5-a]pyrimidine-3-carboxamide]
Cisplatin Sensitization Assay: +++ (Compounds with a Cisplatin sensitization value of <0.02 μM are marked with “+++.”)

CN1CCN(C(=O)C2CCN(c3c(F)cncc3NC(=O)c3c(N)nn4cc(F)cnc34)CC2)CC1(C)C [I-G-15, 2-amino-6-fluoro-N-(5-fluoro-4-(4-(3,3,4-trimethylpiperazine-1-carbonyl)piperidin-1-yl)pyridin-3-yl)pyrazolo[1,5-a]pyrimidine-3-carboxamide]
Cisplatin Sensitization Assay: +++ (Compounds with a Cisplatin sensitization value of <0.02 μM are marked with “+++.”)

CN(C)CCCN(C)C(=O)C1CCN(c2c(F)cncc2NC(=O)c2c(N)nn3cc(F)cnc23)CC1 [I-G-16, 2-amino-N-(4-(4-((3-(dimethylamino)propyl)(methyl)carbamoyl)piperidin-1-yl)-5-fluoropyridin-3-yl)-6-fluoropyrazolo[1,5-a]pyrimidine-3-carboxamide]
Cisplatin Sensitization Assay: +++ (Compounds with a Cisplatin sensitization value of <0.02 μM are marked with “+++.”)

CNCCCN(C)C(=O)C1CCN(c2c(F)cncc2NC(=O)c2c(N)nn3cc(F)cnc23)CC1 [I-G-17]
Cisplatin Sensitization Assay: + (Compounds with a Cisplatin sensitization value >0.2 μM but <5 μM are marked with “+.”)

CN1CC2CN(C(=O)C3CCN(c4c(F)cncc4NC(=O)c4c(N)nn5cc(F)cnc45)CC3)CC2C1 (stereo not shown) [I-G-18, 2-amino-6-fluoro-N-(5-fluoro-4-(4-(5-methyloctahydropyrrolo[3,4-c]pyrrole-2-carbonyl)piperidin-1-yl)pyridin-3-yl)pyrazolo[1,5-a]pyrimidine-3-carboxamide]
Cisplatin Sensitization Assay: +++ (Compounds with a Cisplatin sensitization value of <0.02 μM are marked with “+++.”)

CC(C)(C)NC(=O)C1CCN(c2c(F)cncc2NC(=O)c2c(N)nn3cc(F)cnc23)CC1 [I-G-19, 2-amino-N-(4-(4-(tert-butylcarbamoyl)piperidin-1-yl)-5-fluoropyridin-3-yl)-6-fluoropyrazolo[1,5-a]pyrimidine-3-carboxamide]
Cisplatin Sensitization Assay: ++ (Compounds with a Cisplatin sensitization value >0.02 μM but <0.2 μM are marked with “++.”)

CN1CCC(NC(=O)C2CCN(c3c(F)cncc3NC(=O)c3c(N)nn4cc(F)cnc34)CC2)CC1 [I-G-20, 2-amino-6-fluoro-N-(5-fluoro-4-(4-((1-methylpiperidin-4-yl)carbamoyl)piperidin-1-yl)pyridin-3-yl)pyrazolo[1,5-a]pyrimidine-3-carboxamide]
Cisplatin Sensitization Assay: + (Compounds with a Cisplatin sensitization value >0.2 μM but <5 μM are marked with “+.”)
